Assays:
PSMA [1] = biological target: T1, PSMA (Homo sapiens, UniProt Q04609); assay: Competitive binding affinity on LNCaP cells against [68Ga]Ga-PSMA-11 (competition); details: natRe complex of the listed compound, 1 nM [68Ga]Ga-PSMA-11, 1 h 37° C., mean ± SEM
T1 construct: host or cells: LNCaP human prostate carcinoma cells
Protocol: (§1) Competition, saturation and internalization assays were assessed using the high PSMA expressing human prostate carcinoma cell line LNCaP (ATCC® CRL-1740). The cells were grown as monolayer at 37° C. in a humidified atmosphere comprising 5% CO2 and 95% air in RPMI medium including 10% FCS (Merck KGAA, Germany). After washing the confluent cells twice with phosphate buffered saline (PBS) and detaching them with trypsin/EDTA (0.05%/0.02%), the cells were suspended in medium and counted (Casy TT, Omni Life Science, Germany).
For competition monolayer of LNCaP cells were seeded, 1×10^5 cells/well in 24-well plates two days before the assay. On the day of competition, after aspirating the medium, 100 μL of PBS and, for competition 100 μL of different concentrations of the test compound in PBS (10^−12 to 10^−6 M) were pipetted into the wells, simultaneously to 400 μL of medium including 1 nM of [^68Ga]Ga-PSMA-11.
(§2) After 1 hour of incubation at 37° C. both for competition and saturation samples, the supernatants were aspirated and the cells washed twice with cold PBS. The cell lawn was lysed with 500 μL NaOH/SDS (0.1 M/1%) by shaking for 3 to 5 minutes. After transferring the lysates into measuring tubes, the activity of the samples was measured in a gamma counter (2480 Automatic Gamma Counter Wizard 2, Perkin Elmer, USA).
(§3) The half maximal inhibitory concentrations (IC50) and the dissociations constants (Kd) were calculated by fitting the data using a nonlinear curve-fitting program (GraphPad Prism 9). With the Kd value of [^68Ga]Ga-PSMA-11 on LNCaP and the known concentration of [^68Ga]Ga-PSMA-11 in the competition assay the inhibition constants (Ki) was also determined with the curve-fitting program.

PSMA [2] = biological target: T1, PSMA; assay: Direct binding affinity on LNCaP cells (saturation); details: [99mTc]TcO complex of the listed compound, saturation 0.3-40 nM, 1 h 37° C., mean ± SEM, read-out: Kd [nM] of [99mTc]TcO-complexes
Protocol: as §1
For saturation monolayer of LNCaP cells were seeded, 5×10^4 cells/well in 48-well plates two days before the assay. On the day of saturation, after aspirating the medium, 160 μL of medium (for ^99mTc-labeled radioligand with D-mannitol (1 mg/mL)) were pipetted per well, for non-specific binding samples including 100 μM 2-PMPA. After preincubation for 5 min, 40 μL activity ([^68Ga]Ga-PSMA-11 or ^99mTc-labeled radioligand solution) were added (total volume/well: 200 μL). Eight concentrations ranged between 0.3 and 40 nM.
as §2, §3

[3] = test system: subcutaneous LNCaP tumor xenografts; assay: SPECT/CT and PET/CT imaging in LNCaP tumor bearing mice; assay type: in vivo; details: LNCaP xenograft model
Protocol: A prostate cancer xenograft model was generated via subcutaneous injection of human LNCaP cells into the right shoulder of 8-12 week-old male nude mice (Rj:NMRI-Foxn1^nu/nu, Janvier Labs, Le Genest-Saint-Isle, France). Imaging studies were performed when tumors reached a diameter of >6 mm. General anesthesia was induced and maintained with inhalation of 10% (v/v) desflurane in […] oxygen/air. During anesthesia, animals were continuously warmed at 37° C.
Small animal single-photon emission computed tomography (SPECT) was performed using the nanoSPECT/CT scanner (Mediso Medical Imaging Systems) equipped with an APT63 aperture consisting of four M3 multi-pinhole collimators. Each animal received 30 MBq of ^99mTc-labeled compounds delivered in 0.2 mL of Dulbecco's phosphate-buffered saline as a single intravenous injection through a tail vein catheter. Photon emission was recorded using frame times of 60 s (1 h scan: 40-70 min), 90 s (4 h scan, 3.5-4.5 h), and 320 s (20 h scan, 18.5-21.5 h), and binned simultaneously within the 20% energy window of the 140.5 keV photopeak. With each SPECT scan, a corresponding CT image was recorded and used for anatomical referencing and attenuation correction. SPECT images were reconstructed using the Tera-Tomo™ three-dimensional (3D) algorithm at normal range with a voxel size of 0.4 mm and applying corrections for scatter attenuation, and decay.
Small animal positron emission tomography (PET) was performed using the nanoPET/CT scanner (Mediso Medical Imaging Systems). Each animal received 10 MBq of the radiolabeled reference compound [^68Ga]Ga-PSMA-11 delivered in Dulbecco's phosphate-buffered saline as a single intravenous injection through a tail vein catheter. Emission of the 511 keV annihilation photons was recorded continuously at a coincidence mode of 1:5 for 60 min following radiotracer injection. With each PET scan, a corresponding CT image was recorded and used for anatomical referencing and attenuation correction. Three-dimensional list mode data were binned using the 400-600 keV energy window. PET images of the 40-60 min time frame were reconstructed using the Tera-Tomo™ three-dimensional (3D) algorithm with a voxel size of 0.4 mm and applying corrections for random events, scatter, attenuation, and decay.
Three-dimensional VOIs were created applying fixed threshold for delineation of tumor (30%), muscle (0%); and kidneys (39%). Standardized uptake values (SUV=[MBq detected activity/mL tissue]/[MBq injected activity/g body weight], mL/g) were determined and reported as max SUV (VOI-maximum). Time-activity curves were generated and further analyzed using Prism (GraphPad Software, San Diego CA, USA).

[4] = Determination of log D values (shake-flask, octanol/medium); assay type: physicochemical
Protocol: Log D values were determined for different media by the shake-flask method (Andrés, A.; Rosés, M.; Ràfols, C.; Bosch, E.; Espinosa, S.; Segarra, V.; Huerta, J. M. Setup and validation of shake-flask procedures for the determination of partition coefficients (log D) from low drug amounts. Eur. J. Pharm. Sci. 2015, 76, 181-191.). In preparation, octanol was saturated with each of the used buffer solutions and vice versa. To 3 mL of octanol, together with 3 mL of buffer solution 200-300 μL of the ^99mTc-labeled radioligand (15-25 MBq, samples in triplicate) were added and shaken vigorously for 30 min. After centrifugation at 9,000 rpm for 15 min, samples were taken from both separated phases and measured by gamma-counter. Log D values were calculated as the ratio of radioactivity determined in octanol and aqueous phase.

[5] = Product stability at room temperature (without addition of any media); assay type: physicochemical; details: no media, radio-RP-HPLC
Protocol: (§4) In brief, the freshly produced ^99mTc-labeled radioligand solution (10-20 MBq, 20-100 μL) was added to the respective medium (200-400 μL), vortexed quickly, and shook gently at the respective temperature mentioned below. At certain time points, samples were taken, diluted, and measured by radio-RP-HPLC. Hereby, investigation of plasma samples included protein precipitation with the 4-fold volume of an ice-cold mixture of methanol/water (4/1, v/v), intensive shaking (5 min) and centrifugation (14,000 rpm, 10 min), before inspection of the supernatant. In addition, the recovery of extracted activity was calculated after activity measurement of supernatant and residue by a gamma counter.

[6] = Product stability in DPBS at 25° C.; assay type: physicochemical; details: DPBS (+Ca2+, +Mg2+), mean ± SD, normalized to fraction immediately after preparation
Protocol: as §4

[7] = Product stability in mouse plasma (in vitro); assay type: in vitro ADME; details: mean ± SD (n = 3-4), normalized to fraction immediately after preparation
Protocol: as §4

LNCaP cells = assay: Determination of the internalization (surface binding and internalized activity); assay type: cell-based, human; details: 1 h
Protocol: as §1
For internalization LNCaP and PC3 cells were seeded, 1×10^5 cells/well in 24-well plates two days before the assay. On the day of internalization, after aspirating the medium, 100 μL of PBS and, for non-specific binding samples, 100 μL 2-PMPA (100 μM) were pipetted into the wells, followed by 400 μL medium including activity. The concentration of the ^99mTc-labeled radioligands was 25 nM. After 1 h of incubation at 37° C. and adjacent well plates at 4° C., the supernatant was removed and the cells washed with cold PBS. Surface-bound activity was stripped with 4° C. cold acid-wash buffer (0.2 M glycine, pH 2.8) for 5 min. The acid wash buffer was transferred from the plate wells to measuring tubes, as was the PBS buffer after washing once (binding on the surface). Cytosolic activity was determined after treatment with cell lysis buffer (0.1 M NaOH/1% SDS). Cell surface and cytosolic activity were measured separately in a gamma counter. Determination of protein content from cell lysate was performed using a spectrophotometer (NanoDrop, Thermo Fisher Scientific, USA) at an absorbance of 280 nm.

[8] = as early as 1 hour after injection

T1 sequence (Q04609 whole entry): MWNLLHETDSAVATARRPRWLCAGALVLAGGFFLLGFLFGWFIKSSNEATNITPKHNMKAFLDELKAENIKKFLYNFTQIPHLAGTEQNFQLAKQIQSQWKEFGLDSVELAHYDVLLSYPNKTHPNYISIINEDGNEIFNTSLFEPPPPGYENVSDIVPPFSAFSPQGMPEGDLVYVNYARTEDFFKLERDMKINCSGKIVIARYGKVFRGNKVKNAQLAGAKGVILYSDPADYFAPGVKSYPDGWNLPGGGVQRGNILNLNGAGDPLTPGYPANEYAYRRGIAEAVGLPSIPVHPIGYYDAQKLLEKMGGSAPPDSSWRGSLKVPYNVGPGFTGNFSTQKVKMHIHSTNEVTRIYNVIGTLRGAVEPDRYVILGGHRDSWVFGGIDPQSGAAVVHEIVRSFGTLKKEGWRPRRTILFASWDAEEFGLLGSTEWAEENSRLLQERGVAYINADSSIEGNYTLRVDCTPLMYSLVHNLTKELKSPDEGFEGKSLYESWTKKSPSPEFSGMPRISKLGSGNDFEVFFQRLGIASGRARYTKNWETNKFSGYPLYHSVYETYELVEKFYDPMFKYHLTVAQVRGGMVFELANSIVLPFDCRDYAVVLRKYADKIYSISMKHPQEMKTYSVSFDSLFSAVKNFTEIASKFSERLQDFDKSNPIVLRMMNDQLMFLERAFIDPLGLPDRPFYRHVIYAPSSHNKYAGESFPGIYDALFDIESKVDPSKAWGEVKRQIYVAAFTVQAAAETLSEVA

CC(C)(S)CNCCN(CCCCC(=O)N[C@@H](Cc1ccccc1)C(=O)N[C@@H](Cc1ccccc1)C(=O)N[C@@H](CCCCNC(=O)CCCCCCC(=O)NCCCC[C@H](NC(=O)N[C@@H](CCC(=O)O)C(=O)O)C(=O)O)C(=O)O)CC(C)(C)S [Compound 1]
Ki (PSMA [1]): 4.8 ± 3.4 nM | Kd (PSMA [2]): 15.5 ± 3.2 nM

CC(C)(S)CNCCN(CCCCC(=O)N[C@@H](CCCCNC(=O)CCCCCCC(=O)NCCCC[C@H](NC(=O)N[C@@H](CCC(=O)O)C(=O)O)C(=O)O)C(=O)O)CC(C)(C)S [Compound 3]
Ki (PSMA [1]): 7.3 ± 1.6 nM | Kd (PSMA [2]): 15.8 ± 9.1 nM

CC(C)(S)CNCCN(CCCCC(=O)N[C@@H](CCC(=O)O)C(=O)N[C@@H](CCC(=O)O)C(=O)N[C@H](CCCCNC(=O)CCCCCCC(=O)NCCCC[C@H](NC(=O)N[C@@H](CCC(=O)O)C(=O)O)C(=O)O)C(=O)O)CC(C)(C)S [Compound 5]
Ki (PSMA [1]): 9.3 ± 0.9 nM | Kd (PSMA [2]): 7.2 ± 1.7 nM | pharmacokinetic properties and organ distribution compared to the prior art [3]: faster pharmacokinetic properties and a more favorable organ distribution | tumor-to-kidney ratio [3, 8]: High | tumor-to-muscle ratio [3, 8]: High

CC1(C)CN(CCCCC(=O)N[C@@H](CCCCNC(=O)CCCCCCC(=O)NCCCC[C@H](NC(=O)N[C@@H](CCC(=O)O)C(=O)O)C(=O)O)C(=O)O)CC[N]2CC(C)(C)[S][99Tc]2(=[O])[S]1 (some centres unmarked) [[^99mTc]TcO-3]
LogD (shake-flask, octanol/medium) Na-phosphate pH 7.4 ([4]; 4.4 mM Na2HPO4, 2.2 mM NaH2PO4, pH 7.4): −1.93 ± 0.01 | LogD (shake-flask, octanol/medium) PBS 0.1M pH 7.4 ([4]; PBS 0.1M pH 7.4): −2.07 ± 0.01 | LogD (shake-flask, octanol/medium) TRIS buffer 0.1M pH 7.4 ([4]; TRIS buffer 0.1M pH 7.4): −2.08 ± 0.02 | Fraction of radioligand at indicated time point after preparation, 0 h ([5]; 0 h): 96% | Fraction of radioligand at indicated time point after preparation, 2 h ([5]; 2 h): 93% | Fraction of radioligand at indicated time point after preparation, 4 h ([5]; 4 h): 92% | Fraction of radioligand at indicated time point after preparation, 6 h ([5]; 6 h): 91% | Fraction of radioligand in DPBS at 25° C., 1 h ([6]; 1 h): 98.2 ± 1.9% | Fraction of radioligand in DPBS at 25° C., 2 h ([6]; 2 h): 97.3 ± 3.6% | Fraction of radioligand in DPBS at 25° C., 4 h ([6]; 4 h): 98.4 ± 1.0% | Fraction of radioligand in DPBS at 25° C., 20 h ([6]; 20 h): 89.1 ± 7.4% | Fraction of radioligand after 6 h in mouse plasma at 37° C. [7]: 98.5 ± 0.8% | % Internalization, 37° C. (LNCaP cells; 37° C.): 35.8% | Internalization, 4° C. (% AD/mg Protein) (LNCaP cells; cytosolic activity, 25 nM radioligand, 4° C., mean ± SEM): 0.7 ± 0.2 % AD/mg Protein | Internalization, 37° C. (% AD/mg Protein) (LNCaP cells; cytosolic activity, 25 nM radioligand, 37° C., mean ± SEM): 1.0 ± 0.3 % AD/mg Protein | Binding, 4° C. (% AD/mg Protein) (LNCaP cells; surface-bound activity, 25 nM radioligand, 4° C., mean ± SEM): 2.1 ± 1.2 % AD/mg Protein | Binding, 37° C. (% AD/mg Protein) (LNCaP cells; surface-bound activity, 25 nM radioligand, 37° C., mean ± SEM): 1.8 ± 0.3 % AD/mg Protein

From US20250319213A1, “FUNCTIONALIZED BISAMINOTHIOL DERIVATIVES, COMPLEXES WITH THESE BISAMINOTHIOL DERIVATIVES AND USE OF SAID COMPLEXES AS DIAGNOSTICS AND THERAPEUTICS” (ABX ADVANCED BIOCHEMICAL COMPOUNDS – BIOMEDIZINISCHE …, priority 2022, published 2025)
